{"source": "patent EP0110746A1", "about": "“Derivatives of 3-amino-1-phenoxy-2-propanol, their therapeutical use and process for their preparation” (LABORATOIRE L. LAFON Société anonyme dite:, priority 1982, dated 1984)", "key": {"[1]": {"tested_on": "rats normotendus anesthésiés au pentobarbital", "assay": "Anaesthetised rat: duration of the β-blocking action", "type": "in vivo", "protocol": "Des rats normotendus sont anesthésiés au pentobarbital (75 mg/kg I.P.) et atropinés (1 mg/kg I.P.) On mesure leur pression artérielle carotidienne, leur fréquence cardiaque par intégration de la pression artérielle. Une veine jugulaire est cathétérisée pour les injections. Si besoin est, l'anesthésie est entretenue par injection sous-cutanée de pentobarbital.\n5 rats reçoivent 1 mg/kg de CRL 41 058 par voie I.V. 0n observe que : • - la pression artérielle, diastolique n'est pas modifiée, elle reste voisine de 91 mm Hg; et • - la fréquence cardiaque passe, en 5 min, de 345 à 290 bat/min (soit -16%), la bradycardie maximale est obtenue au temps 20 min : 280 bat/min (soit -19%). Après 90 min, la fréquence cardiaque est à 307 bat/min (soit -11%)."}, "[2]": {"tested_on": "oreillettes droites isolées de cobaye", "assay": "Isolated guinea pig right atria: pA2 against chronotropic effect of isoprenaline, own inotropic and chronotropic action", "from_the_text": "Sur ces oreillettes, on évalue aussi l'action inotrope et chronotrope propre du CRL 41 058; aucune moyenne n'a pu être faite, les concentrations et l'ordre d'administration des concentrations étant variables. […] Par contre, si,par exemple, la concentration de 10^-6 M est administrée après des concentrations inférieures qui ont été stimulantes, cette concentration de 10^-6 M est ino et chrono (ce phénomène pourrait laisser supposer une libération de catécholamines)."}, "Solubility in water": {"assay": "Solubility in water", "type": "physicochemical", "details": "read-out: soluble dans l'eau", "protocol": "La base libre ainsi obtenue est traitée au reflux dans de l'éthanol anhydre par de l'éthanol chlorhydrique. Il se forme un précipité que l'on isole pour recueillir 36,3 g (rendement = 69,75%) de CRL 41 058 qui se présente sous la forme d'une poudre légèrement beige soluble à 12,5 g/1 dans l'eau. Finst (Köfler) ^= 216°C."}, "[3]": {"tested_on": "chiens anesthésiés au nembutal", "assay": "Cardiovascular properties, anaesthetised dog, intraduodenal route", "type": "in vivo, chien", "protocol": "Trois chiens (poids moyen : 13,6 kg) anesthésiés au nembutal reçoivent le CRL 41 058 par voie intraduodénale aux doses successives de 0,5 mg/kg, 1 mg/kg, 2,5 mg/kg, 5 mg/kg et 10 mg/kg. On mesure la pression artérielle (il est rappelé que 1 mm Hg correspond à environ 1,333 x 102 Pa), la fréquence cardiaque, le débit artériel fémoral, le débit artériel vertébral, la température rectale, et on note la coloration de la peau et la coloration de la bile recueillie par cathétérisation du cholédoque après ligature du cystique."}, "souris mâle [4]": {"tested_on": "souris mâle", "assay": "in vivo", "details": "mouse, ip", "protocol": "(§1) On a résumé ci-après une partie des essais qui ont été entrepris avec le CRL 41 058 (produit de l'exemple 1). Dans ces essais et sauf indications contraires, le CRL 41 058, en suspension dans une solution aqueuse de gomme arabique pour des concentrations supérieures ou égales à 3 g/1, et en solution dans de l'eau distillée pour des concentrations inférieures à 3g/l, a été administré par voie intrapéritonéale sous un volume de 20 ml/kg chez la souris mâle et de 5 ml/kg chez le rat mâle.\n(§2) Chez la souris màle par voie I.P., la DL-0 (dose maximale non mortelle) est supérieure à 64 mg/kg, et la DL-30 (dose à laquelle 30% des animaux meurent) est de l'ordre de 128 mg/kg. Le CRL 41 058 est moins toxique que le chlorhydrate de 1-(3,5-diméthoxy- phénoxy)-3-tertiobutylamino-2-propanol qui a une DL-50 par voie I.P. chez la souris mâle de l'ordre de 73 mg/kg."}, "rat mâle": {"tested_on": "rat mâle", "assay": "Global behaviour and reactivities, rat", "type": "in vivo", "protocol": "as §1"}, "[5]": {"tested_on": "rats génétiquement hypertendus", "assay": "Awake genetically hypertensive rat: arterial pressure and heart rate", "type": "in vivo", "details": "20 mg/kg V.B.", "protocol": "6 rats génétiquement hypertendus, à cathéter artériel fémoral implanté, reçoivent le CRL 41 058 à la dose de 20 mg/kg V.B."}, "homme": {"tested_on": "homme", "assay": "Clinical trials in man", "type": "in vivo", "details": "daily dose 40 à 50 mg in 2 à 3 intakes, 2 à 6 semaines"}, "[6]": {"tested_on": "tachycardie induite par isoprénaline", "assay": "Anaesthetised rat: determination of the effective β-blocking dose", "type": "in vivo", "details": "iv, I.V., 0,03 à 0,3 µg/kg I.V. isoprénaline, read-out: dose qui bloque la tachycardie induite par isoprénaline", "protocol": "Des rats normotendus sont anesthésiés au pentobarbital (75 mg/kg I.P.) et atropinés (1 mg/kg I.P.) On mesure leur pression artérielle carotidienne, leur fréquence cardiaque par intégration de la pression artérielle. Une veine jugulaire […] pour les injections. Si besoin est, l'anesthésie est entretenue par injection sous-cutanée de pentobarbital. 3 rats reçoivent le CRL 41 058 par voie intraveineuse, aux doses successives de 0,3 mg/kg, 1 mg/kg,3 mg/kg, 10 mg/kg et, éventuellement, 30 mg/kg. On détermine la dose qui bloque […] induite par 0,03 à 0,3μg/kg […] (dose nécessaire pour obtenir une augmentation de fréquence cardiaque de 30 à 50 bat/min). On trouve que la dose en question est de 1 mg/kg I.V."}, "souris mâle [7]": {"tested_on": "souris mâle", "assay": "Global behaviour and reactivities, mouse", "type": "in vivo", "protocol": "as §1"}, "in vivo": {"assay": "in vivo", "design": "species or system souris", "details": "mouse, ip", "protocol": "as §1, §2"}}}
{"smiles": "COc1cc(OC)c(Cl)c(OCC(O)CNC(C)(C)C)c1", "note": "(stereo not shown) [CRL 41 058, chlorhydratede 1-(2-chloro-3,5-diméthoxyphénoxy)-3-tertiobutylamino-2-propanol]", "values": [{"measurement": "tachycardie à l'isoprénaline", "setting": "[1]; 0,03 µg/kg I.V. isoprénaline after 1 mg/kg I.V., 5 min", "result": "totalement inhibée"}, {"measurement": "tachycardie à l'isoprénaline, part de sa valeur reprise", "setting": "[1]; 0,03 µg/kg I.V. isoprénaline after 1 mg/kg I.V., 20 min", "result": 50, "unit": "%"}, {"measurement": "tachycardie à l'isoprénaline, part de sa valeur restaurée", "setting": "[1]; 0,03 µg/kg I.V. isoprénaline after 1 mg/kg I.V., 60 min", "result": 92, "unit": "%"}, {"measurement": "variation de pression artérielle à l'isoprénaline par rapport à la variation témoin", "setting": "[1]; 0,03 µg/kg I.V. isoprénaline after 1 mg/kg I.V., at 5 min and during 2 h", "result": -69, "unit": "%"}, {"measurement": "variation de pression artérielle à l'isoprénaline", "setting": "[1]; 0,03 µg/kg I.V. isoprénaline after 1 mg/kg I.V., at 5 min and during 2 h, control -26 mm Hg", "result": "+8 mm Hg"}, {"measurement": "fréquence cardiaque, variation", "setting": "[1]; 1 mg/kg I.V., 5 min", "result": -16, "unit": "%"}, {"measurement": "fréquence cardiaque", "setting": "[1]; 1 mg/kg I.V., 5 min, baseline 345", "result": 290, "unit": "bat/min"}, {"measurement": "fréquence cardiaque (bradycardie maximale)", "setting": "[1]; 1 mg/kg I.V., 20 min", "result": 280, "unit": "bat/min"}, {"measurement": "fréquence cardiaque, variation (bradycardie maximale)", "setting": "[1]; 1 mg/kg I.V., 20 min", "result": -19, "unit": "%"}, {"measurement": "fréquence cardiaque", "setting": "[1]; 1 mg/kg I.V., 90 min", "result": 307, "unit": "bat/min"}, {"measurement": "fréquence cardiaque, variation", "setting": "[1]; 1 mg/kg I.V., 90 min", "result": -11, "unit": "%"}, {"measurement": "pression artérielle diastolique", "setting": "[1]; 1 mg/kg I.V., not modified", "result": "~91", "unit": "mm Hg"}, {"measurement": "Kb", "setting": "[2]; Cavia porcellus, 0.25 h, 15 min de contact, mean of 5 atria, read-out: pA2 vis-à-vis de l'effet chronotrope de l'isoprénaline (converted)", "result": 6.17, "unit": "nM"}, {"measurement": "action inotrope et chronotrope propre", "setting": "[2]; maximum at first concentration used, 3 x 10^-8 à 10^-6 M", "result": "effet ino + et chrono+"}, {"measurement": "solubility", "setting": "Solubility in water", "result": 12.5, "unit": "mg/mL"}, {"measurement": "effet tachycardisant de l'isoprénaline", "setting": "[3]; 100 µg/kg isoprénaline, two dogs, after cumulative dose 19 mg/kg", "result": "inférieur à l'effet tachycardisant de 0,3µg/kg d'isoprénaline témoin"}, {"measurement": "minimal effective dose", "setting": "[3]; Canis lupus familiaris, intraduodenal, voie intraduodénale, successive doses 0,5 to 10 mg/kg, read-out: dose bradycardisante", "result": "≥ 0.5", "unit": "mg/kg"}, {"measurement": "pression artérielle systolique", "setting": "[3]; after 1 µg/kg noradrénaline, control 280 mm Hg", "result": 221, "unit": "mm Hg"}, {"measurement": "pression artérielle diastolique", "setting": "[3]; after 3 µg/kg isoprénaline, cumulative dose 19 mg/kg, control 48 mm Hg", "result": 119, "unit": "mm Hg"}, {"measurement": "fréquence cardiaque", "setting": "[3]; after 3 µg/kg isoprénaline, cumulative dose 19 mg/kg, control 245 bat/min", "result": 110, "unit": "bat/min"}, {"measurement": "coloration de la peau et celle de la bile", "setting": "[3]; voie intraduodénale", "result": "ne sont pas modifiées"}, {"measurement": "débit artériel vertébral", "setting": "[3]; voie intraduodénale", "result": "n'est pas vasodilatateur vertébral"}, {"measurement": "températures rectale et cutanée", "setting": "[3]; voie intraduodénale", "result": "varient peu"}, {"measurement": "action sur la pression artérielle", "setting": "[3]; voie intraduodénale, from 0,5 mg/kg", "result": "sans aucune action nette"}, {"measurement": "augmentation du débit fémoral", "setting": "[3]; voie intraduodénale, flow decreases in the two other dogs", "result": "présente seulement chez un chien sur trois"}, {"measurement": "DL-0 (dose maximale non mortelle)", "setting": "souris mâle [4]", "result": "> 64", "unit": "mg/kg"}, {"measurement": "DL-30 (dose à laquelle 30% des animaux meurent)", "setting": "souris mâle [4]", "result": "~128", "unit": "mg/kg"}, {"measurement": "symptômes", "setting": "rat mâle; I.P., 0,25 mg/kg, 1 mg/kg et 4 mg/kg", "result": "ne provoquent pas de symptômes nets"}, {"measurement": "symptômes", "setting": "rat mâle; I.P., 16 mg/kg", "result": "sédation fugace (30 min) et déprime la respiration (chez 2 animaux sur 3) pendant 30 min"}, {"measurement": "fréquence cardiaque", "setting": "[5]; 5 min, baseline 382", "result": 322, "unit": "bat/min"}, {"measurement": "fréquence cardiaque (bradycardie maximale)", "setting": "[5]; 2 h", "result": 305, "unit": "bat/min"}, {"measurement": "pression artérielle", "setting": "[5]; 6 h, baseline 191", "result": 167, "unit": "mm Hg"}, {"measurement": "fréquence cardiaque", "setting": "[5]; 7 h", "result": 322, "unit": "bat/min"}, {"measurement": "fréquence cardiaque", "setting": "[5]; 24 h", "result": 330, "unit": "bat/min"}, {"measurement": "pression artérielle", "setting": "[5]; 24 h", "result": "a repris sa valeur témoin"}, {"measurement": "action β-bloquante chez l'homme", "setting": "homme", "result": "confirmé chez l'homme l'intérêt de l'action β-bloquante"}, {"measurement": "minimal effective dose", "setting": "[6]", "result": 1, "unit": "mg/kg"}, {"measurement": "symptômes", "setting": "souris mâle [7]; I.P., 0,5 mg/kg, 2 mg/kg et 8 mg/kg", "result": "ne provoquent pas de symptômes nets"}, {"measurement": "symptômes", "setting": "souris mâle [7]; I.P., 32 mg/kg", "result": "sédation inconstante (chez 2 animaux sur 3) et fugace (30 min), une dyspnée (chez 2 animaux sur 3) pendant 15 à 30 min"}]}
{"smiles": "COc1cc(OC)cc(OCC(O)CNC(C)(C)C)c1", "note": "(stereo not shown) [chlorhydratede 1-(3,5-diméthoxy-phénoxy)-3-tertiobutylamino-2-propanol, reference compound]", "values": [{"measurement": "LD50", "setting": "in vivo", "result": "~73", "unit": "mg/kg"}]}
